Here are results for 5 compounds from publication PMC10920834, “Synthesis, anticancer activity, and molecular docking of half-sandwich iron(II) cyclopentadienyl complexes with maleimide and phosphine or phosphite ligands” (Scientific Reports, 2024).

Where two headings read alike, the source gives them in different places.

In data set [1] the test system is PBM cells. To be noted: cited from earlier work; for IC50: studied previously, read-out: IC50 PBM cells (ruthenium analogues).
In data set [2] the test system is HL-60 cells. Further details: method as in PMID 26486993. The conditions noted are these: studied previously; read-out: IC50 HL-60 cells (ruthenium analogues); cited from earlier work.
Data set [3] concerns PBM cells. As to the kind of experiment: Cell viability resazurin assay, PBM cells. The data set is classed as cell-based, human. The conditions noted are these: for viability of PBM cells relative to control: ± SD. The text has this: Peripheral blood mononuclear (PBM) cells were isolated from a leukocyte-buffy coat collected from the blood of healthy, non-smoking donors at the Blood Bank in Lodz, Poland. The study protocol received approval from the Committee for Research on Human Subjects of the University of Lodz (17/KBBN-UŁ/III/2019). The initial step of isolation process involved mixing buffy coats with PBS in a 1:1 ratio. Subsequently, the mixture was centrifuged using a density gradient of Lymphosep (Cytogen, Zgierz, Poland) at 2200 RPM for 20 min, employing the lowest values for acceleration and deceleration. PBM cells were collected and washed three times by centrifugation with 1 × PBS. Following isolation, the cells were suspended in RPMI 1640 medium.
(§1) Firstly, resazurin salt powder was dissolved in sterile 1 × PBS. Cells were then seeded on the 96-well plates in the count of 1 × 10^4 in the case of HL-60 cells and of 5 × 10^4 for PBM cells and of 5 × 10^3 for A549 cells per well. A549 cells were seeded 24 h prior to treatment with the complexes to allow cell adherence to 96-well plate. Iron(II) complexes were added to wells to obtain final concentrations of 0.5, 1, 2.5, 5, 10, 25, 50, 100 and 250 μM. Subsequently, plates were incubated at 37 °C in 5% CO2 for 2 h and 24 h. After that 10 μl of resazurin salt was added to each well and plates again were incubated in 37 °C in 5% CO2 for 2 h. Finally, fluorescence was measured with microplate reader Synergy HT (Bio-Tek Instruments, USA) using an excitation wavelength of 530/25 and an emission wavelength of 590/35 nm. The effects of iron(II) complexes were calculated as the percentage of control fluorescence. IC50 (half maximal inhibitory concentration) values were calculated using a website algorithm (https://www.aatbio.com/tools/ic50-calculator). All assays were performed in octuplicate.

Data set [4] relates to HL-60 cells. As to the kind of experiment: Alkaline comet assay, HL-60 cells. Type of data set: cell-based, human. To be noted: 2 h incubation, 1-50 μM tested. The protocol: Selected iron(II) complexes were added to the suspension of the cells to give final concentrations of 1, 5, 10, 25 and 50 μM. HL-60 and A549 cells were incubated with the complexes for 2 h at 37 °C. The comet assay was performed under alkaline conditions according to the procedure of Tokarz et al.[45]. […] Next, the cells were lysed for 1 h at 4 °C in a buffer containing 2.5 M NaCl, 0.1 M EDTA, 10 mM Tris, 1% Triton X-100, pH 10. Following the lysis, the slides were placed in an electrophoresis unit. DNA was allowed to unwind for 20 min in the solution containing 300 mM NaOH and 1 mM EDTA, pH > 13. […] After separation, the slides were washed in water, drained, stained with 2 μg/ml DAPI and covered with cover slips. As a prevention from additional DNA damage, the procedure described above was conducted under limited light or in the dark. Each experiment included the positive control—cells incubated with H2O2 at 20 µM for 15 min on ice (data not shown).
The comets obtained after single cell gel electrophoresis were analysed in the following manner. […] Hundred images of singular comets were randomly selected from each sample and the mean value of DNA in comet tail was taken as an index of DNA damage (expressed in percent).

The test system of data set [5] is HL-60 cells. As to the kind of experiment: Cell viability resazurin assay, HL-60 cells. Type of data set: cell-based, human. The conditions noted are these: for viability of HL-60 cells relative to control: ± SD. The protocol: (§2) The A549 (human non-small cell lung cancer) cell line was obtained from the American Type Culture Collection (ATCC) and cultured in Dulbecco's Modified Eagle Medium (DMEM) with 10% fetal bovine serum (FBS), 2 mM L-Glutamine, 25 mM HEPES and penicillin/streptomycin solution (100 U/ml and 100 µg/ml, respectively). The HL-60 (human promyelocytic leukemia) cell line was also obtained from the American Type Culture Collection (ATCC) and cultured in Iscove’s Modified Dulbecco's Medium (IMDM) with 15% fetal bovine serum (FBS), 2 mM L-Glutamine, 25 mM HEPES and penicillin/streptomycin solution (100 U/ml and 100 µg/ml, respectively). Both cell lines were cultured in flasks at 37 °C in 5% CO2 and sub-cultured every 2–3 days to maintain exponential growth.
as §1
In general terms: Alamar Blue is a resazurin reagent that responds to reducing activity.

Data set [6] concerns A549 cells. The experiment in a line: Cell viability resazurin assay, A549 cells. To be noted: for viability of A549 cells relative to control: ± SD. The data set is classed as cell-based, human. The protocol: as §2, §1
In data set [7] the test system is doxorubicin-resistant (Colo320) cells. Further details: method as in PMID 37187089. The conditions noted are these: cited from earlier work.
Data set [8] concerns doxorubicin-sensitive cells (Colo205). On the set-up: method as in PMID 37187089. To be noted: cited from earlier work.

On to `O=C1C=CC(=O)[N-]1.[C-]#[O+].[Ru+2].c1cc[cH-]c1.c1ccc(P(c2ccccc2)c2ccccc2)cc1` [2a-Ru], for which the “cytotoxicity toward PBM cells of ruthenium analogues, in words” value in data set [1] is listed as “non-toxic”.
One may read the IC50 as the midpoint of a concentration-inhibition curve. For the compound `CCOP(OCC)OCC.O=C1C=CC(=O)[N-]1.[C-]#[O+].[Ru+2].c1cc[cH-]c1` [ruthenium(II) complex 3a, CpRu(CO)(P(OEt)3)(η^1-N-maleimidato)], the IC50 in data set [1] is more than 250 µM; in data set [2], 12.2 µM.
For `CCOP(OCC)OCC.O=C1C=CC(=O)[N-]1.[C-]#[O+].[Fe+2].c1cc[cH-]c1` [3a], the “viability of PBM cells relative to control” value in data set [3] (2 h incubation, 0.5 µM) worked out at 83.62 ± 1.79%; in data set [3] (2 h incubation, 1 µM), 82.59 ± 3.38%; in data set [3] (2 h incubation, 2.5 µM), 83.52 ± 1.8%; in data set [3] (2 h incubation, 5 µM), 86.67 ± 4.18%; in data set [3] (2 h incubation, 10 µM) it was 89.89 ± 2.91%; in data set [3] (2 h incubation, 25 µM), 98.19 ± 4.2%. The “viability of PBM cells relative to control” value in data set [3] (2 h incubation, 50 µM) came to 98.5 ± 3.37%; in data set [3] (2 h incubation, 100 µM), 97.79 ± 4.89%; in data set [3] (2 h incubation, 250 µM) it was 98.17 ± 2.87%; in data set [3] (24 h incubation, 0.5 µM) it was 102.49 ± 0.39%; in data set [3] (24 h incubation, 1 µM) it was 104.14 ± 1.97%; in data set [3] (24 h incubation, 2.5 µM), 104.31 ± 0.56%. The “viability of PBM cells relative to control” value in data set [3] (24 h incubation, 5 µM) is given as 102.43 ± 1.43%; in data set [3] (24 h incubation, 10 µM) it was 99.21 ± 0.78%; in data set [3] (24 h incubation, 25 µM), 98.34 ± 0.97%; in data set [3] (24 h incubation, 50 µM), 98.58 ± 2.84%; in data set [3] (24 h incubation, 100 µM), 102.37 ± 3.3%; in data set [3] (24 h incubation, 250 µM), 94.72 ± 3.88%. In addition, the IC50 in data set [3] (24 h incubation) was more than 250 µM; in data set [5] (24 h incubation) it was 15.9 µM; in data set [6] (24 h incubation), more than 250 µM. Besides, the “DNA damage in HL-60 cells (alkaline comet assay), in words” value in data set [4] was “DNA damage at the concentrations of 10, 25 and 50 μM”. Besides, the “viability of HL-60 cells relative to control” value in data set [5] (2 h incubation, 0.5 µM) is on record as 103.48 ± 2.11%; in data set [5] (2 h incubation, 1 µM), 105.44 ± 1%; in data set [5] (2 h incubation, 2.5 µM), 102.35 ± 0.54%; in data set [5] (2 h incubation, 5 µM) it was 100.13 ± 1.86%; in data set [5] (2 h incubation, 10 µM) it was 101.73 ± 3.47%; in data set [5] (2 h incubation, 25 µM), 97.68 ± 2.4%. For the same compound, the “viability of HL-60 cells relative to control” value in data set [5] (2 h incubation, 50 µM) was 93.65 ± 1.73%; in data set [5] (2 h incubation, 100 µM), 87.54 ± 2.53%; in data set [5] (2 h incubation, 250 µM), 30.8 ± 1.55%; in data set [5] (24 h incubation, 0.5 µM) it was 107.33 ± 1.24%; in data set [5] (24 h incubation, 1 µM) it was 109.38 ± 4%; in data set [5] (24 h incubation, 2.5 µM), 112.36 ± 1.5%. Moreover, the “viability of HL-60 cells relative to control” value in data set [5] (24 h incubation, 5 µM) is on record as 106.89 ± 3.43%; in data set [5] (24 h incubation, 10 µM), 89 ± 3.39%; in data set [5] (24 h incubation, 25 µM), 46.28 ± 0.82%; in data set [5] (24 h incubation, 50 µM) it was 38.62 ± 0.52%; in data set [5] (24 h incubation, 100 µM), 39.69 ± 0.83%; in data set [5] (24 h incubation, 250 µM), 17.5 ± 0.5%. In addition, the “viability of A549 cells relative to control” value in data set [6] (2 h incubation, 0.5 µM) is given as 100.11 ± 13.46%; in data set [6] (2 h incubation, 1 µM) it was 89.02 ± 8.33%; in data set [6] (2 h incubation, 2.5 µM) it was 86.36 ± 7.43%; in data set [6] (2 h incubation, 5 µM), 85.49 ± 7.39%; in data set [6] (2 h incubation, 10 µM), 83.61 ± 12.73%; in data set [6] (2 h incubation, 25 µM), 82.29 ± 5.9%. Further, the “viability of A549 cells relative to control” value worked out at 82.69 ± 3.89% in data set [6] (2 h incubation, 50 µM); 74.97 ± 6.81% in data set [6] (2 h incubation, 100 µM); 68.50 ± 8.56% in data set [6] (2 h incubation, 250 µM); 80.91 ± 12.58% in data set [6] (24 h incubation, 0.5 µM); 70.97 ± 10.92% in data set [6] (24 h incubation, 1 µM); 68.70 ± 18.12% in data set [6] (24 h incubation, 2.5 µM). Moreover, the “viability of A549 cells relative to control” value in data set [6] (24 h incubation, 5 µM) is reported as 68.55 ± 13.94%; in data set [6] (24 h incubation, 10 µM), 71.63 ± 17.67%; in data set [6] (24 h incubation, 25 µM), 131.92 ± 19.26%; in data set [6] (24 h incubation, 50 µM), 131.87 ± 25.64%; in data set [6] (24 h incubation, 100 µM), 153.54 ± 19.26%; in data set [6] (24 h incubation, 250 µM) it was 95.62 ± 13.21%. Besides, the “cytotoxicity against A549 cells, in words” value in data set [6] (24 h incubation) is recorded as “did not show cytotoxicity”. For the same compound, the “A549 cell viability, increase with increasing concentrations to” value in data set [6] (24 h incubation, concentration not given) is listed as 153%.
`O=C1C=CC(=O)[N-]1.[C-]#[O+].[Ru+2].c1cc[cH-]c1.c1ccc(P(c2ccccc2)c2ccccc2)cc1` [ruthenium complex 2b, CpRu(CO)(PPh3) (η^1-N-maleimidato)]: the “cytotoxicity toward PBM cells of ruthenium analogues, in words” value in data set [1] (listed as 2b-Ru) is on record as “cytotoxic”. Besides, the results for the IC50 in data set [1] and in data set [2] were 8.48 µM and 35.6 µM, respectively.
As for `O=S(=O)([O-])C(F)(F)F.[C-]#[O+].[Fe+2].c1cc[cH-]c1.c1ccc(Cn2ccnc2)cc1.c1ccc(P(c2ccccc2)c2ccccc2)cc1` [[CpFe(CO)(PPh3) (1-benzylimidazole)](CF3SO3)], the IC50 is 2210 ± 260 nM in data set [7] and 1260 ± 110 nM in data set [8].
